Laboratory results as given in paper PMC7248707 (Molecules, 2020).

Legend:
human MOR [1] = molecular target: T1, human MOR (Homo sapiens, UniProt P35372)
[2] = cited from earlier work
human MOR [3] = molecular target: T1, human MOR; remark: listed apart in the source
MOR = details: read-out: IC50 in the GPI bioassay; cited from earlier work
rat MOR = molecular target: rat MOR; parameters: method as in PMID 2537427; details: rat brain tissue; cited from earlier work

T1 sequence (P35372 whole entry): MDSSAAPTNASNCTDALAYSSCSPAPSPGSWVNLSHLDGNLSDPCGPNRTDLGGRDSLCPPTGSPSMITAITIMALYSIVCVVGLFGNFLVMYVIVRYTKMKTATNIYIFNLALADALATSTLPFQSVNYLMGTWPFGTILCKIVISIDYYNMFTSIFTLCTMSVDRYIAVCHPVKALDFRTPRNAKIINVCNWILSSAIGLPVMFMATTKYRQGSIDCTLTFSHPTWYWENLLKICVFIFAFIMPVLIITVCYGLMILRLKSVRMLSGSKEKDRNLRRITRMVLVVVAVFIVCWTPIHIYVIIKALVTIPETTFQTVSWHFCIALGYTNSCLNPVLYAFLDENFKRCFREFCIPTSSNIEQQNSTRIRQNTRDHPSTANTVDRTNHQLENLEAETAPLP

SMILES	enhanced MOR agonist potency versus [Dmt^1]DALDA (human MOR [1]) [fold]	EC50 (human MOR [1]; read-out: Agonist Activity EC50) [pM]	BBB crossing / CNS entry [2]	better MOR affinity than DAMGO (human MOR [3]; relative to DAMGO) [fold]	increase in MOR affinity versus [Dmt^1]DALDA (human MOR [3]; relative to [Dmt^1]DALDA)	IC50 (MOR) [pM]	Ki (rat MOR) [pM]
Cc1cc(O)cc(C)c1C[C@H](N)C(=O)N[C@H](CCCNC(=N)N)C(=O)N[C@H]1Cc2ccccc2CN(CCC(N)=O)C1=O [KGOP01]	5	100 ± 20	can enter the CNS	13	ca. 2 fold	800	–
NCCCC[C@H](NC(=O)[C@H](Cc1ccccc1)NC(=O)[C@@H](CCCN=C(N)N)NC(=O)[C@@H](N)Cc1ccc(O)cc1)C(N)=O [DALDA, H-Tyr-D-Arg-Phe-Lys-NH2]	–	–	does not cross the BBB	–	–	–	1690
